Values quoted from earlier work as cited in patent US11154585B2, “Orodispersible film composition comprising enalapril for the treatment of hypertension in a pediatric population” (PHARMATHEN S.A., priority 2017, dated 2021).
Where a name gives a salt, the structure may show the parent alone. Read-outs that look alike come from different tables or passages of the source.

Solubility (alcohol): soluble | Solubility (methanol and dimethylformamide): freely soluble | Solubility (nonpolar organic solvents): practically insoluble | Solubility (semi polar organic solvents): slightly soluble | Solubility (water): sparingly soluble
SMILES: CCOC(=O)[C@H](CCc1ccccc1)N[C@@H](C)C(=O)N1CCC[C@H]1C(=O)O [Enalapril maleate]
